From patent US7038036B2, “Oligonucleotides labeled with stable isotopes and a method for detecting the same” (Taiyo Nippon Sanso Corporation, priority 1999, dated 2006)
“Also recorded” adds a separate entry of the source.

Assay: NMR detection of 13C/15N-labeled RNA in mouse serum sampled three hours after inoculation into the tail
Assay type: in vivo, mice (BALB/cAnNCr)
Conditions: for signals derived from base pairs, 500 MHz 1H-NMR spectra of exchangeable protons (imino protons) / signals derived from nucleic acid bases, 500 MHz 1H-NMR spectra of non-exchangeable protons (9 to 6.5 ppm): 25° C.
Description: Four female SPF/VAF mice (BALB/cAnNCr, 8 weeks old, No. 1 to No. 4) supplied by Charles River Japan, Inc. were used for the experiment.
The abovementioned oligonucleotide (5 mg) was dissolved in 120 μl of a physiological saline solution to prepare four […] samples. Two samples were administered without a drug delivery system. The abovementioned histone subunit mixture was added to the remaining two samples to form a complex. • Sample 1: ^13C—^15N-labeled RNA (inoculated into and sampled from No. 1 mouse) • Sample 2: ^13C—^15N-labeled RNA (inoculated into and sampled from No. 2 mouse) • Sample 3: the complex of ^13C—^15N-labeled RNA and the drug delivery system (inoculated into and sampled from No. 3 mouse) • Sample 4: the complex of ^13C—^15N-labeled RNA and the drug delivery system (inoculated into and sampled from No. 4 mouse)
Each sample solution (100 μl), which was adjusted to 62.5 mg/kg, was inoculated into the tail of the abovementioned mice. Three hours after the inoculation, the mice were anesthetized with ether and about 1 ml of whole blood was sampled from the heart. This whole blood was allowed to stand at room temperature for 30 minutes, and then centrifuged at 1,500 rpm at room temperature for 15 minutes. Supernatant serum obtained by the centrifugation was subjected to NMR measurement as follows. Heavy water (20 μl) was added to the samples (400 μl each) obtained by the abovementioned centrifugation, and the measurement of NMR spectra was carried out at 25° C. A DRX-500 NMR spectrometer (BRUKER) was used for the measurement. Pre-saturation was carried out for the measurement of non-exchangeable protons and jump-and-return pulses were used for the measurement of exchangeable imino proton spectra.

[1] = mouse serum, three hours after inoculation, 62.5 mg/kg, 62.5 mg/kg
[2] = mouse serum, three hours after inoculation, 62.5 mg/kg, listed as Sample 2, 62.5 mg/kg

## Sample 1: oligonucleotide comprising 43 bases shown in SEQ ID No. 1, RNA labeled with 13C and 15N, administered without a drug delivery system (antisense GGGAGAGGGCAACCUGACCUGUUAUCAUCGCAAGAAGCUUCCG; RNA, phosphodiester; uniformly 13C/15N isotope-labeled ribonucleotides)
Complex with the drug delivery system (histone subunit mixture) formed, mouse serum, three hours after inoculation
  detection of the oligonucleotide by NMR: entire length of the oligonucleotide was detected
Mouse serum, three hours after inoculation, 62.5 mg/kg
  13C-1H HMQC spectra of non-exchangeable protons: Only noise, and no spectrum derived from RNA
[1]
  signals derived from base pairs, 500 MHz 1H-NMR spectra of exchangeable protons (imino protons): Absolutely no signal; also recorded: barely detected
  signals derived from nucleic acid bases, 500 MHz 1H-NMR spectra of non-exchangeable protons (9 to 6.5 ppm): only extremely weak signals; also recorded: barely detected
[2]
  signals derived from base pairs, 500 MHz 1H-NMR spectra of exchangeable protons (imino protons): Absolutely no signal; also recorded: barely detected
  signals derived from nucleic acid bases, 500 MHz 1H-NMR spectra of non-exchangeable protons (9 to 6.5 ppm): only extremely weak signals; also recorded: barely detected
No complex with the drug delivery system formed, mouse serum, three hours after inoculation
  detection of the oligonucleotide by NMR: barely detected
When the drug delivery system was used, mice
  time the antisense chain existed in the blood: up to 3 hours
When the drug delivery system was used, mice, three hours after inoculation
  decomposition of the RNA present in the blood: did not undergo partial decomposition
